Test results from ChEMBL document CHEMBL1201862, “PubChem BioAssay data set” (2004).
The source made the active and inactive calls.

Tests used:
[1] = biological target: G-protein coupled receptor 55 (Homo sapiens, UniProt Q9Y2T6); assay: GPR55 antagonists blocking LPI-driven arrestin recruitment, primary screen, imaging, U2OS, beta-arrestin-GFP, LPI agonist (AID 2013); type: functional;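 further: antagonist potency measured as reduced agonist-driven arrestin aggregation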
[2] = biological target: DNA dC->dU-editing enzyme APOBEC-3A (Homo sapiens, UniProt P31941); assay: Dose Response confirmation of small molecule APOBEC3A DNA Deaminase Inhibitors via a fluorescence-based single-stranded DNA deaminase assay. [Related pubchem assays (depositor defined):AID493011, AID493024]; type: functional
Chain of DNA dC->dU-editing enzyme APOBEC-3A (P31941 whole entry): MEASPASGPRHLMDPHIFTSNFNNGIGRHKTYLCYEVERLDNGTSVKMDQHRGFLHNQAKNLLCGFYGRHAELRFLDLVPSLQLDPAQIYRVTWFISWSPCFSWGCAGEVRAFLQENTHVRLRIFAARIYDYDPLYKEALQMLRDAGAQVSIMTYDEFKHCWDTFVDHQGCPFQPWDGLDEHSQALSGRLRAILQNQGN

[3] = biological target: DNA dC->dU-editing enzyme APOBEC-3G (Homo sapiens, UniProt Q9HC16); type: functional;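 further: Dose-response counterscreen measuring inhibition of APOBEC3G DNA deaminase activity, run while confirming APOBEC3A inhibitors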
Chain of DNA dC->dU-editing enzyme APOBEC-3G (Q9HC16 whole entry): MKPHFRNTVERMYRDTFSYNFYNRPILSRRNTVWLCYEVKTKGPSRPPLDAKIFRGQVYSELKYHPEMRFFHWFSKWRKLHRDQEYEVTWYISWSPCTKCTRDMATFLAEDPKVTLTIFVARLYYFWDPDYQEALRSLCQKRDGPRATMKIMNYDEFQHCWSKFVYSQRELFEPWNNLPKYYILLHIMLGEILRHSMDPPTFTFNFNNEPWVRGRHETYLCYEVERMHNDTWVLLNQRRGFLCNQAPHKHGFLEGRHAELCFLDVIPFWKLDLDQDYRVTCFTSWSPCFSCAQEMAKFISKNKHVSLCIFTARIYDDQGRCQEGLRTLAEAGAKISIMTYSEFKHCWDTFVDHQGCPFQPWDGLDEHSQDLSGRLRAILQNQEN

[4] = biological target: Potassium voltage-gated channel subfamily KQT member 2 (Rattus norvegicus, UniProt O88943); assay: retigabine-insensitive KCNQ2 potentiators, concentration-response, dose response, cell-based, retigabine-insensitive compounds (AID 2654); type: functional
Chain of Potassium voltage-gated channel subfamily KQT member 2 (O88943 whole entry): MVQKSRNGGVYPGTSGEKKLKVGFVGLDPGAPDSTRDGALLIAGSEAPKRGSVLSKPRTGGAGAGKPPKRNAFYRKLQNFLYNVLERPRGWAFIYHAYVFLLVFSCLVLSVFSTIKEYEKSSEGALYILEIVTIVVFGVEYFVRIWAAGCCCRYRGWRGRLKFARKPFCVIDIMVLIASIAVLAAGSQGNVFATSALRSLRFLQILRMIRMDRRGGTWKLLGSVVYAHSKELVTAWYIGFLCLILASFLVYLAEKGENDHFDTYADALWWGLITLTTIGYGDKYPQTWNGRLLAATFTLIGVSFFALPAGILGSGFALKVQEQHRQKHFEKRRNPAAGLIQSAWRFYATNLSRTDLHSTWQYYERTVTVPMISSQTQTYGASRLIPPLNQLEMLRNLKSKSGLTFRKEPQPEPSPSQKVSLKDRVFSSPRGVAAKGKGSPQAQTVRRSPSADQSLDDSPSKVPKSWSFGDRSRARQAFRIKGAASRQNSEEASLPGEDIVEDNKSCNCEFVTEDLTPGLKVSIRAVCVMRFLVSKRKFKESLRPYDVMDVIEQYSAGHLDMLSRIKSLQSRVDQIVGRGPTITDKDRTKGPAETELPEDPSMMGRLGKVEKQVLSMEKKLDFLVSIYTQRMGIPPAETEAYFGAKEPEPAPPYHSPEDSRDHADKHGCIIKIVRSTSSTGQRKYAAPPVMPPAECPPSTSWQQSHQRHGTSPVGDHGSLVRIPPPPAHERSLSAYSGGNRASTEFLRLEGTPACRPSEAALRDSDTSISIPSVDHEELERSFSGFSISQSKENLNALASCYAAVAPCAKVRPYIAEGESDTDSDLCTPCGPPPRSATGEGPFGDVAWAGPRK

cells [5] = assay: cells
[6] = HEp-2 cell cytotoxicity, dose response, cytotoxicity control for RSV inhibitor project, HTS (AID 2410); type: functional; conditions: human respiratory syncytial virus
Vero [7] = assay: cells; type: functional, cell-based; conditions: Chlorocebus sabaeus
Vero [8] = assay: cells; type: functional; conditions: Chlorocebus sabaeus
[9] = biological target: T1, Histone-lysine N-methyltransferase NSD2 (Homo sapiens, UniProt O96028); type: biochemical
T1 sequence (O96028 whole entry): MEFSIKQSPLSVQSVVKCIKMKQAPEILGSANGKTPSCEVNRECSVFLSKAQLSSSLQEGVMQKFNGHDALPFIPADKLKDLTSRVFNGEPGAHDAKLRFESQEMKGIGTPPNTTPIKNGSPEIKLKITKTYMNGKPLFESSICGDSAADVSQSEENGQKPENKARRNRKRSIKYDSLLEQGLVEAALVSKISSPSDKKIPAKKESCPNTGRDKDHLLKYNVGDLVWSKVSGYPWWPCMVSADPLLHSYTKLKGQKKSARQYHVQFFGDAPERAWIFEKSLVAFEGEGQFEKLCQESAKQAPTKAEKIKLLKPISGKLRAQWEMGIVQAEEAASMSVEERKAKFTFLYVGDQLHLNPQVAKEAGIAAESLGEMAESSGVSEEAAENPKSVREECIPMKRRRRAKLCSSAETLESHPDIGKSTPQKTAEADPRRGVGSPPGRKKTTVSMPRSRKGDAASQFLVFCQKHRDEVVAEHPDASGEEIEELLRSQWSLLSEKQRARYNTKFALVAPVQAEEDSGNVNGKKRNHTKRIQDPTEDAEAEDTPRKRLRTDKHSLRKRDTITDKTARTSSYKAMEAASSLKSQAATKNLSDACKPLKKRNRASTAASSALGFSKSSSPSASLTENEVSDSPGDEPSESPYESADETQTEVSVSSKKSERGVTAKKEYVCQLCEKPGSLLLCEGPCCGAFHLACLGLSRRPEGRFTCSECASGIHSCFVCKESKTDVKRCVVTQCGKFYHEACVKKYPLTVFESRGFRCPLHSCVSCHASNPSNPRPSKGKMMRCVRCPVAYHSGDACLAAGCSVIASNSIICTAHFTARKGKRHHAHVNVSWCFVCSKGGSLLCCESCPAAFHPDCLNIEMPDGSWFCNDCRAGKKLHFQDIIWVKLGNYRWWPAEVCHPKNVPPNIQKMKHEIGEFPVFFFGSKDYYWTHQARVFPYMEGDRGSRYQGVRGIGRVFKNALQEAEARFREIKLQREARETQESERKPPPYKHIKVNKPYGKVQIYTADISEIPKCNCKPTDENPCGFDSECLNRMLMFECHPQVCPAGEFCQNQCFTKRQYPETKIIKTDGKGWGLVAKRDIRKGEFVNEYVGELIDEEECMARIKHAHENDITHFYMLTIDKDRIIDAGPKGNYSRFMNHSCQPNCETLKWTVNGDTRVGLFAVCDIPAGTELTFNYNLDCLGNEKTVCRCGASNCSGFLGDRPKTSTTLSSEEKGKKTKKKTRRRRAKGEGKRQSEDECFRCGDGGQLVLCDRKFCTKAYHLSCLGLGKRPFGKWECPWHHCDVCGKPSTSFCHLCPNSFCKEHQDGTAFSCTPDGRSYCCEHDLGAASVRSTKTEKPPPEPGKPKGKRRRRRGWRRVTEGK

[10] = biological target: T2, RNA-binding protein pos-1 (Caenorhabditis elegans, UniProt G5EF15); assay: inhibitors of POS-1/mex-3 RNA binding, dose response, biochemical, fluorescence polarization (AID 1964);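 further: purified POS-1 fused to maltose binding protein made in E. coli; potency of compounds blocking POS-1 binding to fluorescent RNA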
T2 sequence (G5EF15 whole entry): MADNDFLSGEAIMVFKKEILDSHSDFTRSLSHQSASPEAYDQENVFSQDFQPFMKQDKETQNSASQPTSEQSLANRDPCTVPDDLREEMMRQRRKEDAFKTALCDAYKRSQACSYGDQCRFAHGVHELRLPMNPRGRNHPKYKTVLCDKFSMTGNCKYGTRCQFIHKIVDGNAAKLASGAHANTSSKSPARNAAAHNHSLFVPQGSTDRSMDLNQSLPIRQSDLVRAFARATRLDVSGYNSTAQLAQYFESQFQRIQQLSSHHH

[11] = biological target: T3, Zinc finger protein mex-5 (Caenorhabditis elegans, UniProt Q9XUB2); assay: MEX-5/TCR-2 RNA interaction inhibitors, dose response, biochemical, C. elegans, fluorescence polarization (AID 1960)
T3 sequence (Q9XUB2 whole entry): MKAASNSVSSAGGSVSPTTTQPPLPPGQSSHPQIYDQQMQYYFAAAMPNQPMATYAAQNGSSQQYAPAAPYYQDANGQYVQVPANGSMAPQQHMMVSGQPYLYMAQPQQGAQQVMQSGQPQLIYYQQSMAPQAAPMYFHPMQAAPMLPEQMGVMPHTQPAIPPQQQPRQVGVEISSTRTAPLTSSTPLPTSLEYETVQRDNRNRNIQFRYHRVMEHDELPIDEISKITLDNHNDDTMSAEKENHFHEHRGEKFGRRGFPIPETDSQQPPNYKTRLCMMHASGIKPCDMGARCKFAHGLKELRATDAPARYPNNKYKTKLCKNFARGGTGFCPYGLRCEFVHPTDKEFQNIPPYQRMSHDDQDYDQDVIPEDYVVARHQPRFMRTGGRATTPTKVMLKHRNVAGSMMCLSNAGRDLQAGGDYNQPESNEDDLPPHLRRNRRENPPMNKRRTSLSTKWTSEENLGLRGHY

[12] = biological target: DNA damage-inducible transcript 3 protein (Mus musculus, UniProt P35639); type: functional, Cricetulus griseus
Chain of DNA damage-inducible transcript 3 protein (P35639 whole entry): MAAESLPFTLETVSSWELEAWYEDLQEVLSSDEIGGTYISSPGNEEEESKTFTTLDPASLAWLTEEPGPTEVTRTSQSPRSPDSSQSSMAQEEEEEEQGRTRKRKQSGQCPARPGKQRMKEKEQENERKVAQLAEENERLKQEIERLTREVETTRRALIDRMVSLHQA

cells [13] = type: functional, cell-based
cells [14] = type: functional, cell-based; remark: listed apart in the source
[15] = biological target: Luciferin 4-monooxygenase (Photinus pyralis, UniProt P08659); assay: Counter Screen for Luciferase-based Assay Positives. [Related pubchem assays: 620, 618, 411 ]
Chain of Luciferin 4-monooxygenase (P08659 whole entry): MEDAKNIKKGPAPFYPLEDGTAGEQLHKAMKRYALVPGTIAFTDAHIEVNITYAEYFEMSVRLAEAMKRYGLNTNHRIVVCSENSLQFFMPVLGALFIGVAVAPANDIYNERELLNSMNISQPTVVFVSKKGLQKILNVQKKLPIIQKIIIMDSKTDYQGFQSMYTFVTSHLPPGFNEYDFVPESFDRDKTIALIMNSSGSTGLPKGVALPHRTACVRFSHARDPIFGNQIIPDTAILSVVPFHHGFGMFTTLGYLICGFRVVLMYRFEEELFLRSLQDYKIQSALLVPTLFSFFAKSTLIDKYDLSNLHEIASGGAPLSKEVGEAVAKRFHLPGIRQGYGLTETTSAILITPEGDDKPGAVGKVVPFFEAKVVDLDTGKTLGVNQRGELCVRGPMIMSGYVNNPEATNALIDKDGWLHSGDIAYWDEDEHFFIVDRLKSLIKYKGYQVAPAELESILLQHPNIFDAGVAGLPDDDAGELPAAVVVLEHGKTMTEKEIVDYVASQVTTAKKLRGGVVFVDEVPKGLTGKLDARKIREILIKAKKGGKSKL

HT-1080 = assay: cytotoxicity in HT1080 fibrosarcoma cells, cell-based, fluorescence readout (AID 620); type: functional; conditions: Homo sapiens
Ion channel NompC = Ion channel NompC (Danio rerio, UniProt Q7T1G6); assay: Fluorescence counterscreen assay for TRPML3 agonists: dose response cell-based high-throughput screening assay to identify agonists of the transient receptor potential channel N1 (TRPN1). [Related pubchem assays: 1526, 1424, 1448 ]; type: functional
Chain of Ion channel NompC (Q7T1G6 whole entry): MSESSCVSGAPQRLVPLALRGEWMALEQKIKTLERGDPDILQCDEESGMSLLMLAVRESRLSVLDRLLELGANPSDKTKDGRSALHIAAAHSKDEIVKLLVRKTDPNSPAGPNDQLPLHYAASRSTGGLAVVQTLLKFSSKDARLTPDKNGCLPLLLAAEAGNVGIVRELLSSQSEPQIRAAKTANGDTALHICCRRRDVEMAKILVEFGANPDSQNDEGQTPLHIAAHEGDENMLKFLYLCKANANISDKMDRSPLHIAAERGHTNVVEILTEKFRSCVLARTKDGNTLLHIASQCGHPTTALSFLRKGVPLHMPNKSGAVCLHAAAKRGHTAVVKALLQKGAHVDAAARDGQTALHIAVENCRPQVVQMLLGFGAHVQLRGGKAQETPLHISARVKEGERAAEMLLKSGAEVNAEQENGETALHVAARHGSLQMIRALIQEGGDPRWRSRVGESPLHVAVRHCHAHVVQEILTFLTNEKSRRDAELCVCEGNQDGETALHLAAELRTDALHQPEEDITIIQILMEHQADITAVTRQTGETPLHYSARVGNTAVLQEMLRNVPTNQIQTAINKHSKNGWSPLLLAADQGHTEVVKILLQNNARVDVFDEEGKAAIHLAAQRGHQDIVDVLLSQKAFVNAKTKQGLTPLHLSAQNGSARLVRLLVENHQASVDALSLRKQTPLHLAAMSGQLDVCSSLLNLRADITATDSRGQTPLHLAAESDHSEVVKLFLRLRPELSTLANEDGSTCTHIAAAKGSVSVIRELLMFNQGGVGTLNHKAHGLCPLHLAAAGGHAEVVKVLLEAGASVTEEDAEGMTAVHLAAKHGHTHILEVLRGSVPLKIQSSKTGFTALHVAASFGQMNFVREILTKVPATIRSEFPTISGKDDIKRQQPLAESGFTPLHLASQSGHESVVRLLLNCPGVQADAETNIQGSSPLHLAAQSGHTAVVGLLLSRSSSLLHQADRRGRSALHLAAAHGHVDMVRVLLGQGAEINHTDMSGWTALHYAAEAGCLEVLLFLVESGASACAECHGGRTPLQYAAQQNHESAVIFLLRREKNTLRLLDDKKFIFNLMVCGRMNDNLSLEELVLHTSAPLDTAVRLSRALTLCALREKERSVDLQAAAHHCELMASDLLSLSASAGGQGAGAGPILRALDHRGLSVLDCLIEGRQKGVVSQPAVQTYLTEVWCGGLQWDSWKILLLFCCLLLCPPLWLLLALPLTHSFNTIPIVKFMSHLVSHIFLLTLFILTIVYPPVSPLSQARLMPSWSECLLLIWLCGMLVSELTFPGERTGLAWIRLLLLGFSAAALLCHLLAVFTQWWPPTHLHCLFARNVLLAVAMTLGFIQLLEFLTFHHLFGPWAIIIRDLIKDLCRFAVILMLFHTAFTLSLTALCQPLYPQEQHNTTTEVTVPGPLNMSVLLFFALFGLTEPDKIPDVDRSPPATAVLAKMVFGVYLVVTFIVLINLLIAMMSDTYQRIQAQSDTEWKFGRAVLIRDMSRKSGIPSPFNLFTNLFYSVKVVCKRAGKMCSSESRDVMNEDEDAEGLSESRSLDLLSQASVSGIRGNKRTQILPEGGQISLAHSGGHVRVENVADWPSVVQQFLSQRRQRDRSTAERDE

Mucolipin-3 = biological target: T4, Mucolipin-3 (Homo sapiens, UniProt Q8TDD5); assay: Dose response cell-based high-throughput screening assay for agonists of the transient receptor potential channel ML3 (TRPML3). [Related pubchem assays: 1526, 1424, 1448 ]; type: functional
T4 sequence (Q8TDD5 whole entry): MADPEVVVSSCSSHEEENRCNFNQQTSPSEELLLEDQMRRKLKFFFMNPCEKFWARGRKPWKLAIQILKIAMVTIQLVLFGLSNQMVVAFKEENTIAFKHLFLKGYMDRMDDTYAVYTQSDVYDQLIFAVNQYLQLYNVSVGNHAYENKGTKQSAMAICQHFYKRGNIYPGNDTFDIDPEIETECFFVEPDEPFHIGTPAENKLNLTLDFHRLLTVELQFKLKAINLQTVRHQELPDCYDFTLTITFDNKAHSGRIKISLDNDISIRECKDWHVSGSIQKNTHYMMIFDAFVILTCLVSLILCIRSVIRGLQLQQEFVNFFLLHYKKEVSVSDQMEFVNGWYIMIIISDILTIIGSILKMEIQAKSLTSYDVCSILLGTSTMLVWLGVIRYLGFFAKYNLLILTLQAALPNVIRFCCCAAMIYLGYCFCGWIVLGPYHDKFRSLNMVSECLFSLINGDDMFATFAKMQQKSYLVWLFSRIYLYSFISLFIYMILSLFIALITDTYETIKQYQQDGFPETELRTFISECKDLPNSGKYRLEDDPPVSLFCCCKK

[16] = Shn3 3'UTR reporter inhibitors, dose response, cell-based, Clone20 osteoblasts, firefly luciferase, cherry-picked (AID 624132); type: functional;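 further: firefly luciferase luminescence from reporter carrying the Shn3 3'UTR in osteoblasts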
[17] = control 3'UTR Renilla luciferase suppression, dose response, counter-screen for Shn3 inhibitor project, cell-based, Clone20-Shn3RL, cherry-picked (AID 624133); type: functional
[18] = HepG2 cell cytotoxicity, dose response, cytotoxicity control for Shn3 inhibitor project, CellTiter-Glo, cherry-picked (AID 624134); type: functional, cell-based
[19] = inhibitors of intracellular T. cruzi replication, confirmation, NIH3T3 host cells, beta-gal luminescence (AID 2044); type: functional, cell-based;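 further: intracellular parasites grown in NIH/3T3 mouse fibroblasts as host cells; luminescent beta-galactosidase reporter signal from transgenic T. cruzi replicating inside host cells; inhibitors lower the luminescence signal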
HEK293 [20] = assay: NOD2 signaling inhibitors in MDP-stimulated cells, cell-based, uHTS, luminescence (AID 2001); type: functional; conditions: Homo sapiens
HEK293 [21] = assay: cells; type: functional, cell-based; conditions: Homo sapiens
[22] = biological target: FAD-linked sulfhydryl oxidase ALR (Homo sapiens, UniProt P55789); assay: inhibitors of human ALR sulfhydryl oxidase, dose response, biochemical, H2O2 detection, luminescence, cherry-pick (AID 493248)
Chain of FAD-linked sulfhydryl oxidase ALR (P55789 whole entry): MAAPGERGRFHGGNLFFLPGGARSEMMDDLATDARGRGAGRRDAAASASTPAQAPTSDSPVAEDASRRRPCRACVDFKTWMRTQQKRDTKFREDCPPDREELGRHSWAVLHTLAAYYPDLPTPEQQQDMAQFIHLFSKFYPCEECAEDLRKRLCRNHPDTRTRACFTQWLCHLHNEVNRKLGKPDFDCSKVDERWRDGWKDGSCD

[23] = C. albicans growth with fluconazole, confirmation, fluorescence, retest (AID 2467); type: functional, cell-based
[24] = NIH-3T3 fibroblast cytotoxicity, dose response, cytotoxicity control, cell-based, fluorescence, Alamar Blue, secondary assay (AID 2327); type: functional;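 further: NIH-3T3 mouse fibroblasts cultured with fluconazole at 8 µg/mL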
[25] = cytotoxicity in HEK-293T cells, dose response, cytotoxicity control for TCR NF-kB inhibitor project, luminescence, T-cell screen hits (AID 489026); type: functional, cell-based;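 further: cells exposed to compound about 14 hours before the viability readout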
HEK293 [26] = assay: NOD1 signaling inhibitors, primary screen, cell-based, luminescence, uHTS (AID 1578); type: functional; conditions: Homo sapiens
[27] = cytotoxicity toward NIH3T3 fibroblasts, dose response, counter-screen, cell-based, ATP luminescence, mouse fibroblasts (AID 2010); type: functional;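 further: cells exposed to compound for about 90 hours before reading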
HEK293 [28] = assay: cells; type: functional, cell-based; conditions: Homo sapiens; remark: listed apart in the source

Chain of G-protein coupled receptor 55 (Q9Y2T6 whole entry): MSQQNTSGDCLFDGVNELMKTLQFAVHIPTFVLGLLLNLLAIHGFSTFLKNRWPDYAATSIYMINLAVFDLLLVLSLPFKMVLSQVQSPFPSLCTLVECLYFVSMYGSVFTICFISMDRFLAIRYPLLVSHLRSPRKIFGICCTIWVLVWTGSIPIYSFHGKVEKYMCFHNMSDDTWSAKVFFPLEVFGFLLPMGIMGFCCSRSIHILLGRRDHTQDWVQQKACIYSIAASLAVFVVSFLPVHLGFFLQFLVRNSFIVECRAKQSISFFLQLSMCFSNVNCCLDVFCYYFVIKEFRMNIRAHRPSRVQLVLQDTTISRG

Structure (SMILES): CCCSc1ccc(-c2nn(-c3ccccc3)cc2/C=C(/C#N)C(=O)N2CCOCC2)cc1
- IC50 [1]: < 0.5 µM (active)

Structure (SMILES): O=C(CSc1nnnn1-c1ccccc1)Nc1ccc(N2CCOCC2)c(Cl)c1
- IC50 [2]: 6.63 µM (active)
- IC50 [3]: 9.68 µM (active)

Structure (SMILES): O=C(Nc1cccnc1)Nc1ccc2c(c1)OCO2
- EC50 [4]: 152 µM (active)

Structure (SMILES): Cc1cc(NC(=O)COC(=O)c2ccccc2S(=O)(=O)N(C)c2ccccc2)no1
- IC50 (cells [5]): 9.76 µM (active)
- CC50 [6]: 34.1 µM (active)
- IC50 (Vero [7]): > 25 µM (active)
- CC50 (Vero [8]): > 25 µM (active)

Structure (SMILES): Cc1ccc(CN2C(=O)N/C(=C\c3cccn3-c3cccc(C(=O)O)c3)C2=O)cc1
- AC50 [9]: 12.8 µM (active)
- EC50 [10]: > 300 µM (not active)
- IC50 [2]: 10.3 µM (active)
- EC50 [11]: > 300 µM (not active)
- IC50 [3]: 25.7 µM (active)

Structure (SMILES): CCC(Cc1ccccc1)n1c(=S)[nH]c2ccccc2c1=O (stereo unspecified)
- Absolute IC50 (CHOP) [12]: 10 µM
- EC50 (cells [13]): > 350 µM (not active)
- EC50 (cells [14]): > 350 µM (not active)

Structure (SMILES): Cc1ccc(-c2nc3cc(NC(=O)C(C)C)ccc3o2)cc1
- EC50 [15]: 0.23 µM (active)
- EC50 (HT-1080): > 50 µM (not active)

Structure (SMILES): Cc1cc(N)n2nc(-c3ccccc3)c(-c3ccccc3)c2n1
- IC50 [1]: 2.35 µM (active)

Structure (SMILES): Cc1nc(NC(=O)c2csc3ccccc23)sc1C
- EC50 (Ion channel NompC): > 29.9 µM (not active)
- EC50 (Mucolipin-3): 8.95 µM (active)

Structure (SMILES): COc1ccccc1-c1cc(C(F)(F)F)nc(S(=O)(=O)CCCC(=O)Nc2cc(C)on2)n1
- Absolute IC50 (CHOP) [12]: 10 µM
- AC50 [16]: 6.57 µM (active)
- AC50 [17]: 16 µM (active)
- AC50 [18]: 28 µM (active)

Structure (SMILES): CC1CCN(S(=O)(=O)c2ccc(Br)s2)CC1
- EC50 (Ion channel NompC): > 29.9 µM (not active)
- EC50 (Mucolipin-3): > 29.9 µM (not active)

Structure (SMILES): Cc1cncc(NC(=O)Nc2cccc(F)c2)c1
- EC50 [4]: 12.4 µM (active)

Structure (SMILES): Cc1cc(NC(=O)Nc2cccc(F)c2)cnc1Br
- EC50 [4]: 6.61 µM (active)

Structure (SMILES): Cc1ccc(C=Cc2ccc(N(C)C)cc2)[n+](C)c1
- IC50 [2]: 3.16 µM (active)
- EC50 [19]: 0.232 µM (active)
- IC50 (HEK293 [20]): 16 µM (inactive)
- IC50 (HEK293 [21]): > 20 µM (inactive)
- AC50 [22]: 1.24 µM (active)
- EC50 [23]: 3.83 µM (active)
- EC50 [24]: > 160 µM (inconclusive)
- IC50 [25]: > 80 µM (inactive)
- EC50 (HEK293 [26]): 4.84 µM (active)
- EC50 [27]: 16.1 µM (active)
- IC50 (HEK293 [28]): 10.8 µM (active)
- IC50 [3]: 4.34 µM (active)
